In paper PMC8224802 (Pharmaceutics, 2021):
Read-outs that look alike come from different tables or passages of the source.

What was measured:
[1] = Plasma protein binding by rapid equilibrium dialysis (human plasma); format: in vitro ADME; settings: human, plasma (20-fold diluted); Table S3, in-house; species not printed (clinical prediction); read-out: fu,QCT
Experimental: (§1) A 200 μL spiked samples and 400 μL PBS were placed into the “sample” and “buffer” chambers of the RED device, respectively. After 4-h incubation to equilibrate between the buffer and plasma compartments, the RED plate was sampled from both compartments. The samples were matrix-matched for analysis by addition of either diluted plasma or buffer; (a) blank diluted plasma added to the buffer samples and (b) blank buffer added to the diluted plasma sample, at a ratio of 50:50 v/v. The unbound fractions in microsomes and diluted plasma were determined by dividing the analyte/IS peak area ratios of the (a) sample by those of the (b) sample. The unbound fraction in diluted plasma (fu,d) was converted to the unbound fraction in undiluted plasma (fu) using a Kalvass equation as below (DF: dilution factor). (1) fu=1/DF/[(1/fu,d)−1]+1/DF

[2] = test system: microsomal metabolism of RPG in HLM; assay: In vitro inhibition of RPG metabolism by QCT in HLM; format: in vitro ADME, human
Experimental: (§2) The intrinsic metabolic clearance (CLint) was calculated as Vmax/Km. […] The parameter α is indicative of the inhibition type. The mixed model is a general equation that includes competitive, uncompetitive, and noncompetitive inhibition as special cases. When α = 1, the mixed model is identical to a noncompetitive inhibition. When α is very large (α→∞) or very small (α→0), the mixed model becomes identical to competitive inhibition or uncompetitive inhibition, respectively.

[3] = test system: microsomal metabolism of RPG (repaglinide); assay: as above; format: in vitro ADME, human; settings: human, human liver microsomes
Experimental: as §2

[4] = Microsomal protein binding by rapid equilibrium dialysis (HLM); settings: human, microsomes
Experimental: as §1

[5] = test system: CYP3A4; design: method as in PMID 28232125; settings: read-out: Ki of QCT for CYP3A4 activity; cited from earlier work
[6] = design: method as in earlier work; settings: Table S3, ref [1] of the supplement (Ganio et al., 2010); cited from earlier work
[7] = test system: in vitro metabolism of RPG in HLM; settings: cited from earlier work
[8] = In vivo oral pharmacokinetic study of RPG without or with QCT in rats; design: species or system Sprague-Dawley rats; settings: rats, oral QCT 100 mg/kg
Experimental: Rats were anesthetized via intramuscular injection of 10 mg/kg zoletil. The femoral vein and artery of the rats were cannulated using a polyethylene tube (BD Medical, Franklin Lakes, NJ, USA). […] The vehicle solutions for the intravenous and oral doses were composed of PEG 400 and aqueous 0.3% CMC solution (50:50 v/v).
For comparison, the extent of absolute oral bioavailability (F; expressed as percent of dose administered) was calculated by dividing the dose-normalized AUC after oral administration by the dose-normalized AUC after intravenous injection. The peak plasma concentration (Cmax) and time to reach Cmax (Tmax) were obtained directly from the measured experimental data.

[9] = test system: microsomal metabolism of RPG in RLM; assay: In vitro inhibition of RPG metabolism by QCT in RLM; format: in vitro ADME, rat
Experimental: as §2

[10] = test system: microsomal metabolism of RPG (repaglinide); assay: as above; format: in vitro ADME, rat; settings: rat, rat liver microsomes
Experimental: as §2

[11] = cited from earlier work
[12] = healthy subjects, cited from earlier work
[13] = probe RPG (repaglinide), 1, 3, 10, 30 and 100 μM

## O=c1c(O)c(-c2ccc(O)c(O)c2)oc2cc(O)cc(O)c12 [QCT, Quercetin]
[1]
  fraction unbound at 4 h, 5 μM: 0.0462
[2]; HLM, Dixon plot and model fit
  Type of inhibition of RPG metabolism by QCT: mixed inhibition
[2]; Table S3, source Figure 4, read-out: IC50 used for estimation of R
  IC50: 1.66 µM
[2]; humans (HLM)
  Inhibition potency of QCT on hepatic metabolism of RPG in vitro: moderate
[2]; read-out: IC50 of QCT on the microsomal metabolism of RPG, HLM 0.5 mg/mL, 3 μM RPG
  IC50: 3.03 ± 1.84 µM
[3]; probe RPG (repaglinide), 3 μM, IC50 of QCT on the microsomal metabolism of RPG, HLM 0.5 mg/mL, 3 μM RPG
  IC50: 3 µM
[3]; [13]
  Ki: 24.2 µM
[3]; probe RPG (repaglinide), Table S3, S = 5 μM, read-out: Calculated Ki, (fu,mic,QCT × IC50) / (S / Km + 1)
  Ki: 0.534 µM
[4]
  fraction unbound at 4 h, 5 μM: 0.381
[5]
  Ki: […]
[6]
  Imax,u (maximum unbound plasma concentration of QCT): […]
[7]; QCT 25 μM, RPG 0.2 μM
  Inhibition of in vitro metabolism of RPG: 58%
[7]; RPG 0.2 and 2 μM, QCT 25 μM
  Effect of QCT on metabolism of RPG in HLM: significantly inhibited
[7]; read-out: Ki for the inhibitory effect of QCT on in vitro metabolism of RPG
  Ki: 0.61 µM
[8]
  Classification of QCT as inhibitor of in vivo metabolism and systemic exposure of RPG: weak inhibitor
[9]; RLM, Dixon plot and model fit
  Type of inhibition of RPG metabolism by QCT: mixed inhibition
[9]; rats (RLM)
  Inhibition potency of QCT on hepatic metabolism of RPG in vitro: weak
[10]; probe RPG (repaglinide), 3 μM
  IC50 at 60 min: […]
[10]; [13]
  Ki at 60 min: 72 µM

## CC[C@H]1OC(=O)[C@H](C)C(=O)[C@H](C)[C@@H](O[C@@H]2O[C@H](C)C[C@H](N(C)C)[C@H]2O)[C@](C)(OC)C[C@@H](C)C(=O)[C@H](C)[C@H]2N(CCCCn3cnc(-c4cccnc4)c3)C(=O)O[C@]12C [telithromycin]
[11]
  Increase of systemic exposure to orally administered RPG by CYP3A4 inhibitors: 1.8 fold

## CCC(C)n1ncn(-c2ccc(N3CCN(c4ccc(OCC5COC(Cn6cncn6)(c6ccc(Cl)cc6Cl)O5)cc4)CC3)cc2)c1=O (stereo not shown) [itraconazole]
[11]
  Increase of systemic exposure to orally administered RPG by CYP3A4 inhibitors: 1.4 fold

## Cn1c(=O)c2c(ncn2C)n(C)c1=O [caffeine]
[12]; QCT 500 mg/day for 14 days
  Effect of oral QCT on systemic exposure (AUC and/or Cmax): significantly increased

## CN(CCOc1ccc(CC2SC(=O)NC2=O)cc1)c1ccccn1 (stereo not shown) [rosiglitazone]
[12]; QCT 500 mg/day for 21 days
  Effect of oral QCT on the pharmacokinetics of rosiglitazone: did not significantly change

## COC(=O)[C@H](c1ccccc1Cl)N1CCc2sccc2C1 [clopidogrel]
[11]
  Increase of systemic exposure to orally administered RPG by CYP2C8 inhibitors: 3.1–5.1 fold

## COc1cc(Cc2cnc(N)nc2N)cc(OC)c1OC [trimethoprim]
[11]
  Increase of systemic exposure to orally administered RPG by CYP2C8 inhibitors: 1.6–2 fold
